From patent publication US6995175B2, “Chemical derivatives and their application as antitelomerase agent” (Aventis Pharma S.A., priority 2001, dated 2006)
Structures can show the parent of a compound that is named as a salt.

What was measured:
[1] = test system: human telomerase (HL60 cell extract); experiment: Inhibition of telomerase, TRAP test (TS extension and PCR with HL60 extract); format: biochemical; conditions: telomerase extract from HL60 cells
Description: The extract is stored at -80° C.

[2] = test system: G-quadruplex oligonucleotide GGGTTAGGGTTAGGGTTAGGG (3.5 repeats of the human telomeric unit); experiment: G-quadruplex stabilization, fluorescence Tm (FAM+DABCYL oligonucleotide); format: binding; conditions: increase in Tm vs reference without product (44° C. in LiCl buffer), 0.2 μM oligonucleotide, 0.1 M LiCl, 10 mM cacodylate pH 7.6
Text: The G-quadruplex stabilizing activity may be determined by a method using the formation of a complex with fluorescein of which the experimental protocol is described below.
All the oligonucleotides, modified or otherwise, were synthesized by Eurogentec S A, Seraing, Belgium. The oligonucleotide FAM+DABCYL carries the catalogue reference OL-0371-0802. It has the sequence: […] corresponding to 3.5 repeats of the human telomeric unit (strand rich in G). The fluorescein is attached to the 5′ end, the DABCYL to the 3′ end, by the chemical arms described by Eurogentec. The concentration of the samples is checked by spectrophotometry, recording the absorbance spectrum between 220 and 700 nm and using the molar extinction coefficient provided by the supplier.
All the experiments were carried out in a 10 mM sodium cacodylate buffer pH 7.6 containing 0.1 M lithium chloride (or sodium chloride). The absence of fluorescent contamination in the buffer was checked beforehand. The fluorescent oligonucleotide is added at the final concentration of 0.2 μM.
All the measurements of fluorescence were carried out on a Spex Fluorolog DM1B apparatus, using an excitation line width of 1.8 nm and an emission line width of 4.5 nm. The samples are placed in a microquartz cuvette of 0.2×1 cm. The temperature of the sample is controlled by an external water bath. The oligonucleotide alone was analyzed at 20, 30, 40, 50, 60, 70 and 80° C. The emission spectra are recorded using an excitation wavelength of 470 nm. The excitation spectra are recorded using either 515 nm or 588 nm as emission wavelength. The spectra are corrected for the response of the instrument by reference curves. A high extinction (80–90%) of the fluorescence of fluorescein at room temperature is observed, in agreement with an intramolecular folding of the oligonucleotide at 20° C. in the form of a G-quadruplex, which induces juxtaposition of its 5′ and 3′ ends which are respectively linked to fluorescein and to DABCYL. This juxtaposition causes an already-described phenomenon of extinction of fluorescence which is used for “Molecular Beacons”.
An oligonucleotide stock solution at the strand concentration of 0.2 μM in 0.1 M LiCl, 10 mM cacodylate buffer, pH 7.6, is prepared beforehand, heated briefly at 90° C. and slowly cooled to 20° C., and then distributed in aliquots of 600 μl in the fluorescence cuvettes. […] The samples are then allowed to incubate for at least 1 hour at 20° C. before each measurement. The use of longer incubation times (up to 24 hours) has no influence on the result obtained.
Each experiment allows the measurement of only one sample. The latter is first incubated at an initial temperature of 20° C., heated to 80° C. over 38 minutes, left for 5 minutes at 80° C. and then cooled to 20° C. over 62 minutes. During this time, the fluorescence is measured simultaneously at two emission wavelengths (515 nm and 588 nm) using 470 nm as excitation wavelength. A measurement is carried out every 30 seconds. The temperature of the water bath is recorded in parallel, and the fluorescence profile as a function of the temperature is reconstituted from these values. The fluorescence profiles are then normalized between 20° C. and 80° C., and the temperature for which the intensity of emission at 515 nm is the mean of those at high and low temperature is called Tm. Under these conditions, the Tm of the reference sample without addition of product is 44° C. in a lithium chloride buffer. This temperature is increased to more than 55° C. in a sodium chloride buffer. The addition of a G-quadruplex stabilizing compound induces an increase in the Tm. This increase is judged to be significant if it is greater than 3°.

Row | SMILES | IC50 [1] [nM] | G4 Tm (G4 stabilization differential in ° C., product tested at 1 µM) [2] [°C]
1 | Cc1cc(N(C)C)c2cc(NC(=O)Cc3ccc(CC(=O)Nc4ccc5nc(C)cc(N(C)C)c5c4)cc3)ccc2n1 [Example 21, N,N′-bis(4-dimethylamino-2-methylquinolin-6-yl)-1,4-phenylenediacetamide] | 1300 | 3
2 | COc1cc(C)nc2ccc(NC(=O)Nc3cccc(NC(=O)Nc4ccc5nc(C)cc(OC)c5c4)c3)cc12 [Example 8, 1-(4-methoxy-2-methylquinolin-6-yl)-3-{3-[3-(4-methoxy-2-methylquinolin-6-yl)ureido]phenyl}urea] | 750 | 2.5
3 | Cc1cc(N(C)C)c2cc(NC(=O)c3cccc(C(=O)Nc4ccc5nc(C)cc(N(C)C)c5c4)n3)ccc2n1 [Example 24, bis-[(4-dimethylamino-2-methylquinolin-6-yl)-amido]-2,6-pyridinedicarboxylic acid hydrochloride] | 500 | 15.6
4 | Cc1cc(N(C)C)c2cc(NC(=O)c3ccc(C(=O)Nc4ccc5nc(C)cc(N(C)C)c5c4)s3)ccc2n1 [Example 2, bis[(4-dimethylamino-2-methylquinolin-6-yl)amido]-2,5-thiophenedicarboxylic acid] | 900 | 10.5
5 | CSc1c(Cl)nc(Nc2ccc3nc(C)cc(N)c3c2)nc1Nc1ccc2nc(C)cc(N)c2c1 [Example 16, N,N′-bis(4-amino-2-methyl-6-quinolyl)-2,4-diamino-6-chloro-5-methylsulfanylpyrimidine] | 550 | 5
6 | Cc1cc(N(C)C)c2cc(NC(=O)Nc3ccc(NC(=O)Nc4ccc5nc(C)cc(N(C)C)c5c4)cc3)ccc2n1 [Example 9, 1-(4-dimethylamino-2-methylquinolin-6-yl)-3-{4-[3-(4-dimethylamino-2-methylquinolin-6-yl)ureido]phenyl}urea] | 800 | 11.5
7 | COc1cc(C)nc2ccc(NC(=O)c3ccc(C(=O)Nc4ccc5nc(C)cc(OC)c5c4)s3)cc12 [Example 1, bis[(4-methoxy-2-methylquinolin-6-yl)amido]-2,5-thiophenedicarboxylic acid] | 1700 | 2.5
8 | Cc1cc(N(C)C)c2cc(NC(=O)c3ccc(C(=O)Nc4ccc5nc(C)cc(N(C)C)c5c4)cc3)ccc2n1 [Example 7, N,N′-bis(4-dimethylamino-2-methylquinolin-6-yl)-terephthalamide] | 1500 | 2
9 | Cc1cc(N(C)C)c2cc(NC(=O)/C=C/C(=O)Nc3ccc4nc(C)cc(N(C)C)c4c3)ccc2n1 [Example 18, N,N′-bis(4-dimethylamino-2-methylquinolin-6-yl)but-2-enediamide] | 1200 | 9
10 | Cc1cc(N(C)C)c2cc(NCc3ccc(C(=O)Nc4ccc5nc(C)cc(N(C)C)c5c4)nc3)ccc2n1 [Example 22, [(4-dimethylamino-2-methylquinolin-6-yl)-amido]-5-[(4-dimethylamino-2-methylquinolin-6-ylamino)methyl]pyridine-2-carboxylic acid Hydrochloride] | 2900 | 4

Further lines, with some results ahead:

Row | IC50 [1] [nM] | SMILES | G4 Tm (G4 stabilization differential in ° C., product tested at 1 µM) [2] [°C]
11 | 950 | Cc1cc(N)c2cc(NC(=O)c3ccc(C(=O)Nc4ccc5nc(C)cc(N)c5c4)s3)ccc2n1 [Example 3, bis[(4-amino-2-methylquinolin-6-yl)amido]-2,5-thiophenedicarboxylic acid] | 1.7
12 | 200 | Cc1cc(N)c2cc(NC(=O)c3cccc(C(=O)Nc4ccc5nc(C)cc(N)c5c4)n3)ccc2n1 [Example 23, bis[(4-amino-2-methylquinolin-6-yl)-amido]-2,6-pyridinedicarboxylic acid hydrochloride] | 23
13 | 310 | Cc1cc(N)c2cc(NC(=O)c3cccc(C(=O)Nc4ccc5nc(C)cc(N)c5c4)c3)ccc2n1 [Example 6, N,N′-bis(4-amino-2-methylquinolin-6-yl)-isophthalamide] | 16
14 | 1100 | Cc1cc(N(C)C)c2cc(NC(=O)c3ccnc(C(=O)Nc4ccc5nc(C)cc(N(C)C)c5c4)c3)ccc2n1 [Example 20, bis[(4-dimethylamino-2-methylquinolin-6-yl)-amido]-2,4-pyridinedicarboxylic acid] | –
15 | 300 | Cc1cc(N)c2cc(NC(=O)c3ccc(C(=O)Nc4ccc5nc(C)cc(N)c5c4)nc3)ccc2n1.Cl [Example 17, bis[(4-amino-2-methylquinolin-6-yl)amido]-2,5-pyridinedicarboxylic acid Hydrochloride] | 5.5
16 | 600 | Cc1cc(N(C)C)c2cc(NC(=O)c3ccc(C(=O)Nc4ccc5nc(C)cc(N(C)C)c5c4)nc3)ccc2n1 [Example 19, bis[(4-dimethylamino-2-methylquinolin-6-yl)-amido]-2,5-pyridinedicarboxylic acid] | 16
